# Reference: patent US20240067600A1, “SMALL MOLECULE INHIBITORS OF THE MITOCHONDRIAL PERMEABILITY TRANSITION PORE (mtPTP)” (UNIVERSITY OF KANSAS, priority 2014, published 2024)
# Like-named read-outs stand apart in the source and are kept apart here.
# Legend:
# Type in all cases: biochemical, mice
# [1] = tested on: Mitochondrial Permeability Transition Pore; experiment: Mitochondrial swelling absorbance assay
# Method: Mitochondrial Swelling (Hit Validation, Confirmatory Assay, Concentration-Response, AID No. 720722)
# Assay buffer: 250 mM sucrose, 10 mM MOPS-Tris, 0.01 mM EGTA-Tris, 1.0 mM phosphoric acid-Tris, pH 7.4 • Solution 1. 5.0 mM glutamate and 2.5 mM malate in Assay buffer. • Solution 2. 80-120 μM CaCl2) depending on mitochondrial activity in Solution 1. Note: Concentration of Ca^2+ in the assay is dependent upon the activity of the isolated mitochondria which is determined via a calcium titration just before each screening batch. A Ca^2+ concentration is used that allows for the arrival at a 2:1 window at the 20 minute time period. • Solution 3. 1% DMSO in Solution 2. • Solution 4. 2.0 mM EGTA-Tris, pH 7.4 in Solution 3. • Solution 5. 0.5 mg/mL mitochondria in Assay Buffer.
# Protocol Summary: • 1. Freshly isolate mitochondria, prepare solutions according to the recipes in the reagent section • 2. Dispense 100 μL of Solution 4 to Columns 1-2 and Solution 3 Columns 11-12 (positive and negative controls, respectively) of the 96-well clear assay plate (Falcon 353072) • 3. Dispense 200 μL of Solution 1 to Row A Columns 3-10. • 4. Next, dispense 100 μL of Solution 3 to Rows B-H Columns 3-10. • 5. Add 4 μL of 5 mM test compounds in DMSO to Row A Columns 3-10, perform 1:2 serial dilutions Row A to H Columns 3-10. • 6. Finally, dispense 100 μL of Solution 5 in all wells. The reaction starts. • 7. Keep the plate at room temperature for 20 minutes and then read absorbance at 540 nm on MultiSkan EX, Thermo Scientific.
# Concentration-Response Assay to Identify Compounds that Inhibit Mitochondrial Swelling (SAR Assay AID No. 743359)
# Assay buffer: 250 mM sucrose, 10 mM MOPS-Tris, 0.01 mM EGTA-Tris, 1.0 mM phosphoric acid, pH 7.4 • Solution 1. 5.0 mM glutamate and 2.5 mM malate in Assay Buffer. • Solution 2. 100-120 μM CaCl2) depending on mitochondrial activity in Solution 1. Note: Concentration of Ca^2+ in the assay is dependent upon the activity of the isolated mitochondria which is determined via a calcium titration just before each screening batch. A Ca^2+ concentration is used that allows for the arrival at a 2:1 window at the 20 minute time period. • Solution 3. 1% DMSO in Solution 2. • Solution 4. 2.0 mM EGTA-Tris, pH 7.4 in Solution 3. • Solution 5. 0.5 mg/mL mitochondria in Assay Buffer.
# Protocol Summary: • 1. Freshly isolate mitochondria, prepare solutions according to the recipes in the Reagent Section. • 2. Dispense 100 μL of Solution 4 to Columns 1-2 and Solution 3 Columns 11-12 (positive and negative controls, respectively) of the 96-well clear assay plate (Falcon 353072). • 3. Dispense 200 μL of Solution 1 to Row A Columns 3-10. • 4. Next, dispense 100 μL of Solution 3 to Rows B-H Columns 3-10. • 5. Add 4 μL of 5 mM test compounds in DMSO to Row A Columns 3-10, perform 1:2 serial dilutions Row A to H Columns 3-10. • 6. Finally, dispense 100 μL of Solution 5 in all wells. The reaction starts. • 7. Keep the plate at room temperature for 20 minutes and then read absorbance at 540 nm on MultiSkan EX, Thermo Scientific.
# mtPTP = experiment: Calcium retention capacity (CRC) assay on isolated mitochondria; conditions: for Calcium Retention Capacity (CRC/CRC0 at 12.5 μM): 12.5 μM compound; for Calcium Retention Capacity (CRC/CRC0) at 1.56 μM: 1.56 μM compound
# Method: Assay buffer: 250 mM sucrose, 10 mM MOPS-Tris, 0.01 mM EGTA-Tris, 1.0 mM phosphoric acid-Tris, pH 7.4. • Solution 1. 10 mM glutamate and 5 mM malate in Assay buffer. • Solution 2. 1% DMSO in Solution 2. • Solution 3. 0.5 mg/mL mitochondria and 1.0 μM Calcium Green-5N in Assay Buffer. • Solution 4. 0.25 mM CaCl2).
# Protocol Summary: • 1. Freshly isolate mitochondria, prepare solutions according to the recipes in the Reagent Section. • 2. Dispense 100 μL of Solution 2 to Columns 1-2 (negative control) of the 96-well black assay plate (Falcon 353376). • 3. Dispense 200 μL of Solution 1 to Row A Columns 3-12. • 4. Next, dispense 100 μL of Solution 2 to Rows B-H Columns 3-12. • 5. Add 4 μL of 5 mM test compounds in DMSO to Row A Columns 3-12, perform 1:2 serial dilutions Row A to H Columns 3-12. • 6. Finally, dispense 100 μL of Solution 3 in all wells. • 7. Experiment starts. Read Calcium Green-5N fluorescence (excitation 485 nm, emission 538 nm) and perform a train of 4 μL Solution 4 additions with Fluoroskan Ascent FL, Thermo Scientific.
# IMM potential = experiment: Rhodamine 123 (Rh123) uptake counterscreen;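 note: isolated mitochondria respiring on glutamate plus malate in sucrose MOPS-Tris buffer at pH 7.4, Rh123 added with the organelles, compounds tested across a twofold dilution series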
# Method: Assay buffer: 250 mM sucrose, 10 mM MOPS-Tris, 0.01 mM EGTA-Tris, 1.0 mM phosphoric acid-Tris, pH 7.4 • Solution 1. 5.0 mM glutamate and 2.5 mM malate in Assay Buffer. • Solution 2. 1% DMSO in Solution 1. • Solution 3. 0.8 μM FCCP (the stock 40 μM in DMSO) in Solution 1. • Solution 4. 0.5 mg/mL mitochondria and 0.8 μM Rh123 in Assay Buffer.
# Protocol Summary: • 1. Freshly isolate mitochondria, prepare solutions according to the recipes in the Reagent Section. • 2. Dispense 100 μL of Solution 3 to Columns 1-2 and Solution 2 Columns 11-12 (positive and negative controls, respectively) of the 96-well black assay plate (Falcon 353376). • 3. Dispense 200 μL of Solution 1 to Row A Columns 3-10. • 4. Next, dispense 100 μL of Solution 2 to Rows B-H Columns 3-10. • 5. Add 4 μL of 10 mM test compounds in DMSO to Row A Columns 3-10, perform 1:2 serial dilutions Row A to H Columns 3-10. • 6. Finally, dispense 100 μL of Solution 4 in all wells. The reaction starts. • 7. Keep the plate at room temperature for 5 minutes and then read fluorescence (excitation 485 nm, emission 538 nm) on Fluoroskan Ascent FL, Thermo Scientific.
# Concentration-Response Counterscreen Assay to Identify Compounds that Prevent Mitochondrial Swelling Via Interference with the IMM Potential (SAR Assay AID No. 743361)
# Assay buffer: 250 mM sucrose, 10 mM MOPS-Tris, 0.01 mM EGTA-Tris, 1.0 mM phosphoric acid-Tris, pH 7.4 • Solution 1. 5.0 glutamate and 2.5 mM malate in Assay Buffer. • Solution 2. 1% DMSO in Solution 1. • Solution 3. 0.8 μM FCCP (the stock 40 μM in DMSO) in Solution 1. • Solution 4. 0.5 mg/mL mitochondria and 0.8 μM Rh123 in Assay Buffer.
# [2] = Table 1, read-out: Rh123 uptake (EC50)
# [3] = Table 2, average of >3 experiments ± SEM
# [4] = Table 2, average of >3 experiments ± SEM, read-out: Rh123 Assay EC50
SMILES,"EC50 ([1]; Table 1, average ± SEM)","Calcium Retention Capacity (CRC/CRC0 at 12.5 μM) (mtPTP; Table 1, average ± SEM)",EC50 (IMM potential; [2]),"EC50 [1, 3]",Calcium Retention Capacity (CRC/CRC0 at 12.5 μM) (mtPTP; [3]),EC50 (IMM potential; [4]),"Calcium Retention Capacity (CRC/CRC0) at 1.56 μM (mtPTP; Table 1, average ± SEM)"
Cc1ccc(Cl)cc1NC(=O)c1ccc(-c2cccc(O)c2)cc1,4710 ± 349 nM,2.59 ± 0.22,> 100 µM,,,,
COc1ccc(Cl)cc1C(=O)Nc1ccc(CN2CCCCC2)cc1,1540 ± 101 nM,1.80 ± 0.00,> 100 µM,,,,
Cc1cc(Cl)cc(NC(=O)c2cc(-c3cccc(O)c3)on2)c1,78 ± 5 nM,9.34 ± 1.04,> 100 µM,,,,
COc1ccc(Cl)cc1C(=O)Nc1ccc(CCN2CCOCC2)cc1,9000 ± 404 nM,1.23 ± 0.02,> 100 µM,,,,
O=S(=O)(Nc1ccc(CCN2CCCCC2)cc1)c1cccc(Cl)c1,38700 ± 3670 nM,1.12 ± 0.02,> 100 µM,,,,
COc1ccc(Cl)cc1C(=O)Nc1ccc(CN2CCOCC2)cc1,8120 ± 388 nM,1.20 ± 0.00,> 100 µM,,,,
O=C(Nc1cccc(CN2CCNCC2)c1)c1ccc(Cl)c(OCc2ccccc2)c1 [Entry 6],,,,286 ± 27 nM,16.1 ± 1.5,42.6 ± 3.1 µM,
COc1ccc(Cl)cc1C(=O)Nc1ccc(CCN2CCNCC2)cc1 [drawing 145],5850 ± 344 nM,1.37 ± 0.02,> 100 µM,,,,
COc1ccc(-c2cc(C(=O)Nc3cc(Cl)ccc3OC)no2)cc1O,97 ± 3.4 nM,9.89 ± 1.31,> 100 µM,,,,6.62 ± 0.84
COc1ccc(-c2cc(C(=O)Nc3cc(Cl)ncc3C)no2)cc1O [drawing 202],366 ± 47.5 nM,4.27 ± 0.40,> 100 µM,,,,
N#Cc1ccc(Cl)cc1NC(=O)c1cc(-c2cccc(O)c2)on1,30 ± 2.6 nM,13.99 ± 1.50,> 100 µM,,,,7.69 ± 0.61
Cc1cccc(C)c1NC(=O)c1cc(-c2cccc(O)c2)on1,12.1 ± 1.4 nM,,> 100 µM,,,,8.12 ± 0.59 (at 1.56 μM)
COc1ccc(-c2cc(C(=O)Nc3cc(Cl)ccc3C)no2)cc1O,0.00756 ± 0.00122 nM,14.44 ± 0.58,> 100 µM,,,,10.02 ± 0.34
COc1ccc(Cl)cc1C(=O)Nc1ccc(CN2CCNCC2)cc1 [drawing 153],2150 ± 100 nM,1.65 ± 0.06,> 100 µM,,,,
O=C(Nc1ccc(CN2CCCCC2)cc1)c1cccc(OCc2ccccc2)c1,885 ± 116 nM,3.54 ± 0.28,51.2 µM,,,,
COc1ccc(Cl)cc1C(=O)Nc1cccc(CN2CCNCC2)c1,3270 ± 150 nM,1.52 ± 0.06,> 100 µM,,,,
COc1ccc(-c2cc(C(=O)Nc3cc(Cl)ccc3F)no2)cc1O,217 ± 51.8 nM,5.37 ± 0.58,> 100 µM,,,,
O=C(Nc1ccc(CN2CCOCC2)cc1)c1ccc(Cl)c(OCc2ccccc2)c1 [Entry 4],,,,403 ± 31 nM,8.81 ± 0.39,> 100 µM,
O=C(Nc1ccc(CN2CCCCC2)cc1)c1ccc(F)c(OCc2ccccc2)c1 [Entry 2],,,,372 ± 28 nM,13.3 ± 1.0,> 100 µM,
O=C(Nc1ccc(CN2CCCCC2)cc1)c1cc(F)cc(OCc2ccccc2)c1 [Entry 1],,,,521 ± 46 nM,10.8 ± 0.6,58.6 ± 2.9 µM,
Cc1ncc(Cl)cc1NC(=O)c1cc(-c2cccc(O)c2)on1,24 ± 2.2 nM,10.09 ± 0.91,> 100 µM,,,,6.62 ± 0.89
CC(C)C1CCN(CCCC(=O)c2ccc(Br)cc2)CC1,10000 ± 7780 nM,1.16 ± 0.05,64.8 ± 4.19 µM,,,,
